Measured values from patent US20070027130A1, “Tricyclic 6-alkylidene-penem beta-lactamase inhibitors and beta-lactam antibiotic combination: a broad spectrum antibiotic” (priority 2005, published 2007).
Values after ≈ are worked out from the molar mass of the structure shown.

Key:
Assay in all cases: MIC microbroth dilution
Type in all cases: cell-based
[1] = system: C. freundii GC 4164 Inducible AmpC; conditions: Citrobacter freundii, β-lactamase class C, MHBII, 35° C. 18 hr, read-out: Minimal Inhibitory Concentration
Protocol: (§1) The in vitro activities of the antibiotics were determined by the microbroth dilution method as recommended by the National Committee for Clinical Laboratory Standards (NCCLS). (NCCLS. 2000. Methods for Dilution Antimicrobial Susceptibility Tests for Bacteria That Grow Aerobically; Approved Standards: M7-A5, vol. 19. National Committee for Clinical Laboratory Standards, Villanova, Pa.). Mueller-Hinton II broth (MHBII) (BBL Cockeysville, Md.), was used for the testing procedure. […]. The plates were incubated for 18-22 hours at 35 C. in ambient air.

[2] = system: K. pneumoniae GC 7821 DHA 1; conditions: Klebsiella pneumoniae, GC7821DHA1, β-lactamase class C, MHBII, 35° C. 18 hr, read-out: Minimal Inhibitory Concentration
Protocol: as §1

[3] = system: A. baumannii GC 7684 AmpC, AmpC; conditions: Acinetobacter baumannii, β-lactamase class C, MHBII, 35° C. 18 hr, read-out: Minimal Inhibitory Concentration
Protocol: as §1

[4] = system: K. pn GC 6657 (TEM-1 + SHV-27); conditions: Klebsiella pneumoniae, β-lactamase class A, A (ESBL), MHBII, 35° C. 18 hr, read-out: Minimal Inhibitory Concentration
Protocol: as §1

E. coli GC 2920 (IRT-2) = conditions: Escherichia coli, β-lactamase class A (IRT), MHBII, 35° C. 18 hr, read-out: Minimal Inhibitory Concentration
Protocol: as §1

[5] = system: K. pn GC 2391 (pl 5.4; 5.6; 7.6; 8.7 B-lactamases); conditions: Klebsiella pneumoniae, β-lactamase class A, A (ESBL), C (presumed), MHBII, 35° C. 18 hr, read-out: Minimal Inhibitory Concentration
Protocol: as §1

E. coli GC 2804 (imp) = conditions: Escherichia coli, 18 h, read-out: Minimal Inhibitory Concentration
Protocol: as §1

[6] = system: E. coli GC 2017 (TEM-10 + pl 6.3; 8.1); conditions: Escherichia coli, β-lactamase class A (ESBL), MHBII, 35° C. 18 hr, read-out: Minimal Inhibitory Concentration
Protocol: as §1

[7] = system: E. cloacae PT 967 Inducible AmpC; conditions: Enterobacter cloacae, β-lactamase class C, MHBII, 35° C. 18 hr, read-out: Minimal Inhibitory Concentration
Protocol: as §1

E. coli GC 2253 (IRT-2) = conditions: Escherichia coli, 18 h, read-out: Minimal Inhibitory Concentration
Protocol: as §1

[8] = system: K. pn GC 6488 (TEM-1 + SHV-5 + SHV-7); conditions: Klebsiella pneumoniae, β-lactamase class A, A (ESBL), MHBII, 35° C. 18 hr, read-out: Minimal Inhibitory Concentration
Protocol: as §1

[9] = system: A. baumannii GC 7685 TEM-1; conditions: Acinetobacter baumannii, GC7685TEM1, 18 h, read-out: Minimal Inhibitory Concentration
Protocol: as §1

[10] = system: A. baumannii GC 7687 AmpC; conditions: Acinetobacter baumannii, GC7687AMPC, β-lactamase class C, MHBII, 35° C. 18 hr, read-out: Minimal Inhibitory Concentration
Protocol: as §1

[11] = system: E. coli ATCC 25922 (none); conditions: Escherichia coli, ATCC25922, β-lactamase class none, MHBII, 35° C. 18 hr, read-out: Minimal Inhibitory Concentration
Protocol: as §1

[12] = system: K. pneumoniae GC 7823 Fox 5; conditions: Klebsiella pneumoniae, GC7823FOX5, β-lactamase class C, MHBII, 35° C. 18 hr, read-out: Minimal Inhibitory Concentration
Protocol: as §1

[13] = system: K. pn GC 1554 (TEM-1 + TEM-26 + SHV-1); conditions: Klebsiella pneumoniae, β-lactamase class A, A (ESBL), MHBII, 35° C. 18 hr, read-out: Minimal Inhibitory Concentration
Protocol: as §1

[14] = system: E. coli GC 5901 (TEM-1 and SHV-8); conditions: Escherichia coli, β-lactamase class A, A (ESBL), MHBII, 35° C. 18 hr, read-out: Minimal Inhibitory Concentration
Protocol: as §1

[15] = system: K. pneumoniae GC 7636 TEM-1 KPC-2 SHV-12; conditions: Klebsiella pneumoniae, 18 h, read-out: Minimal Inhibitory Concentration
Protocol: as §1

E. coli GC 1480 OXA-1 = conditions: Escherichia coli, GC1480OXA1, β-lactamase class D, MHBII, 35° C. 18 hr, read-out: Minimal Inhibitory Concentration
Protocol: as §1

[16] = system: E. cloacae GC 7052 SHV-5, Amp C inducable; conditions: Enterobacter cloacae, β-lactamase class A (ESBL), MHBII, 35° C. 18 hr, read-out: Minimal Inhibitory Concentration
Protocol: as §1

[17] = system: S. marcescens PT 696 Inducible AmpC; conditions: Serratia marcescens, β-lactamase class C, MHBII, 35° C. 18 hr, read-out: Minimal Inhibitory Concentration
Protocol: as §1

[18] = system: S. typhimurium GC 4198 SHV-1 CTX-M-5; conditions: Salmonella enterica, 18 h, read-out: Minimal Inhibitory Concentration
Protocol: as §1

[19] = system: P. aeruginosa GC 4161 Stably derepressed AmpC; conditions: Pseudomonas aeruginosa, 18 h, read-out: Minimal Inhibitory Concentration
Protocol: as §1

[20] = system: E. cloacae GC 7065 TEM-26, SHV-12 Amp C inducable; conditions: Enterobacter cloacae, β-lactamase class A (ESBL), MHBII, 35° C. 18 hr, read-out: Minimal Inhibitory Concentration
Protocol: as §1

[21] = system: E. cloacae GC 6991 (AmpC); conditions: Enterobacter cloacae, β-lactamase class C, MHBII, 35° C. 18 hr, read-out: Minimal Inhibitory Concentration
Protocol: as §1

Question: For `CO/N=C(\C(=O)N[C@@H]1C(=O)N2C(C(=O)[O-])=C(C[N+]3(C)CCCC3)CS[C@H]12)c1csc(N)n1` [Cefepime], which MIC [1] is on record?
Answer: The MIC was 2 µg/mL (≈ 4.16 µM).

Question: What about the MIC [2] of the same compound?
Answer: Its MIC is 0.06 µg/mL (≈ 0.125 µM).

Question: And the MIC [3]?
Answer: Its MIC is 16 µg/mL (≈ 33.3 µM).

Question: What about the MIC [4] of the same compound?
Answer: The MIC was 0.12 µg/mL (≈ 0.25 µM).

Question: And the MIC (E. coli GC 2920 (IRT-2))?
Answer: The MIC was 0.06 µg/mL (≈ 0.125 µM).

Question: And the MIC [5]?
Answer: The MIC was 8 µg/mL (≈ 16.6 µM).

Question: What about the MIC (E. coli GC 2804 (imp)) of the same compound?
Answer: Its MIC is 0.03 µg/mL (≈ 0.0624 µM).

Question: What about the MIC [6] of the same compound?
Answer: The MIC was 16 µg/mL (≈ 33.3 µM).

Question: What about the MIC [7] of the same compound?
Answer: The MIC was 0.12 µg/mL (≈ 0.25 µM).

Question: And the MIC (E. coli GC 2253 (IRT-2))?
Answer: The MIC was 0.03 µg/mL (≈ 0.0624 µM).

Question: What about the MIC [8] of the same compound?
Answer: The MIC was 8 µg/mL (≈ 16.6 µM).

Question: And the MIC [9]?
Answer: The MIC was > 16 µg/mL.

Question: What about the MIC [10] of the same compound?
Answer: The MIC was 16 µg/mL (≈ 33.3 µM).

Question: And the MIC [11]?
Answer: Its MIC is 0.03 µg/mL (≈ 0.0624 µM).

Question: And the MIC [12]?
Answer: The MIC was 1 µg/mL (≈ 2.08 µM).

Question: What about the MIC [13] of the same compound?
Answer: The MIC was 8 µg/mL (≈ 16.6 µM).

Question: And the MIC [14]?
Answer: The MIC was > 16 µg/mL.

Question: And the MIC [15]?
Answer: The MIC was > 16 µg/mL.

Question: And the MIC (E. coli GC 1480 OXA-1)?
Answer: Its MIC is 4 µg/mL (≈ 8.32 µM).

Question: And the MIC [16]?
Answer: Its MIC is 8 µg/mL (≈ 16.6 µM).

Question: And the MIC [17]?
Answer: The MIC was 0.5 µg/mL (≈ 1.04 µM).

Question: What about the MIC [18] of the same compound?
Answer: Its MIC is > 16 µg/mL.

Question: And the MIC [19]?
Answer: The MIC was > 16 µg/mL.

Question: What about the MIC [20] of the same compound?
Answer: Its MIC is 16 µg/mL (≈ 33.3 µM).

Question: And the MIC [21]?
Answer: Its MIC is 0.5 µg/mL (≈ 1.04 µM).
